ChEMBL document CHEMBL1201862, “PubChem BioAssay data set” (2004)
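Test compounds were applied to cells in 96-well plates for 48 hours at 5 doses. GI50 = concentration required for 50% inhibition of growth.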 Active and inactive are the calls of the source. No stated cut-off is given here; in the data, active = GI50 up to about 1.1 µM and inactive = higher.

Key:
Test in all cases: NCI anticancer screen, dose series, 48 h
ACHN = test system: ACHN
BT-549 = test system: BT-549
CAKI-1 = test system: CAKI-1
CCRF-CEM = test system: CCRF-CEM
COLO 205 = test system: COLO 205
EKVX = test system: EKVX
KM12 = test system: KM12
NCI/ADR-RES = test system: NCI/ADR-RES
OVCAR-3 = test system: OVCAR-3
OVCAR-5 = test system: OVCAR-5
RXF 393 = test system: RXF 393
SF-268 = test system: SF-268
SF-295 = test system: SF-295
SK-MEL-28 = test system: SK-MEL-28
SR = test system: SR
SW-620 = test system: SW-620
IGROV-1 = test system: IGROV-1
NCI-H460 = test system: NCI-H460

SMILES	GI50 (ACHN)	GI50 (BT-549)	GI50 (CAKI-1)	GI50 (CCRF-CEM)	GI50 (COLO 205)	GI50 (EKVX)	GI50 (KM12)	GI50 (NCI/ADR-RES)	GI50 (OVCAR-3)	GI50 (OVCAR-5)	GI50 (RXF 393)	GI50 (SF-268)	GI50 (SF-295)	GI50 (SK-MEL-28)	GI50 (SR)	GI50 (SW-620)	GI50 (IGROV-1)	GI50 (NCI-H460)
CC1(C(=O)O)CCC2(C)CCC3(C)C(=CC(=O)C4C5(C)CCC(O)C(C)(C)C5CCC43C)C2C1 (stereo unspecified)	22.6 µM (inactive)	11.7 µM (inactive)	24.4 µM (inactive)	30.9 µM (inactive)	38.8 µM (inactive)	34.9 µM (inactive)	18.3 µM (inactive)	46 µM (inactive)	19.3 µM (inactive)	29.6 µM (inactive)	36.1 µM (inactive)	27.4 µM (inactive)	26.5 µM (inactive)	22.1 µM (inactive)	24.3 µM (inactive)	37.5 µM (inactive)	–	–
O=c1oc2c/c(=C\c3ccc([N+](=O)[O-])cc3)c(=O)c3cccc1c3-2	> 100 µM (inactive)	54.6 µM (inactive)	–	36.8 µM (inactive)	> 100 µM (inactive)	> 100 µM (inactive)	83.6 µM (inactive)	> 100 µM (inactive)	48.5 µM (inactive)	> 100 µM (inactive)	–	39.8 µM (inactive)	> 100 µM (inactive)	> 100 µM (inactive)	> 100 µM (inactive)	> 100 µM (inactive)	> 100 µM (inactive)	> 100 µM (inactive)
CCCCCCCCSC1=C(Cl)C(=O)C(OC)=C(OC)C1=O	10 µM (inactive)	14 µM (inactive)	12.3 µM (inactive)	5.68 µM (inactive)	17.1 µM (inactive)	10.9 µM (inactive)	7.53 µM (inactive)	17.4 µM (inactive)	7.14 µM (inactive)	6.67 µM (inactive)	13.2 µM (inactive)	12.4 µM (inactive)	12.5 µM (inactive)	–	–	10.6 µM (inactive)	14.1 µM (inactive)	15.4 µM (inactive)
O=C1CCCn2c(nc3ccccc32)N1	> 100 µM (inactive)	> 100 µM (inactive)	> 100 µM (inactive)	> 100 µM (inactive)	> 100 µM (inactive)	> 100 µM (inactive)	> 100 µM (inactive)	> 100 µM (inactive)	> 100 µM (inactive)	> 100 µM (inactive)	> 100 µM (inactive)	> 100 µM (inactive)	> 100 µM (inactive)	–	> 100 µM (inactive)	> 100 µM (inactive)	> 100 µM (inactive)	> 100 µM (inactive)
CS(=O)(=O)c1ccc(C(=O)O[C@@H]2C(=O)N3CC[C@H]4OC(O)[C@@H]2[C@H]43)cc1 (stereo partly specified)	> 100 µM (inactive)	> 100 µM (inactive)	> 100 µM (inactive)	–	> 100 µM (inactive)	> 100 µM (inactive)	> 100 µM (inactive)	> 100 µM (inactive)	> 100 µM (inactive)	> 100 µM (inactive)	> 100 µM (inactive)	> 100 µM (inactive)	> 100 µM (inactive)	> 100 µM (inactive)	> 100 µM (inactive)	> 100 µM (inactive)	–	> 100 µM (inactive)
O=C(Nc1ccccc1)N(C1=NCC(CI)S1)c1ccc(F)cc1F (stereo unspecified)	> 100 µM (inactive)	26.5 µM (inactive)	25.4 µM (inactive)	15.3 µM (inactive)	46 µM (inactive)	> 100 µM (inactive)	45.6 µM (inactive)	> 100 µM (inactive)	> 100 µM (inactive)	> 100 µM (inactive)	24.3 µM (inactive)	> 100 µM (inactive)	> 100 µM (inactive)	24.1 µM (inactive)	12.2 µM (inactive)	62.1 µM (inactive)	20.9 µM (inactive)	–
O=C1c2ccccc2-c2nc(-c3ccccc3)cc3c2c1nc1ccccc13	18.5 µM (inactive)	17.7 µM (inactive)	27.2 µM (inactive)	0.59 µM (active)	25.6 µM (inactive)	23.5 µM (inactive)	15.6 µM (inactive)	14.5 µM (inactive)	0.141 µM (active)	29.4 µM (inactive)	29.5 µM (inactive)	19.7 µM (inactive)	12 µM (inactive)	9.25 µM (inactive)	2.11 µM (inactive)	13.2 µM (inactive)	4.12 µM (inactive)	–
CCOC(=O)c1c(-c2ccc(Br)cc2)ccn1C	> 10 µM (inactive)	> 10 µM (inactive)	> 10 µM (inactive)	> 10 µM (inactive)	> 10 µM (inactive)	> 10 µM (inactive)	> 10 µM (inactive)	> 10 µM (inactive)	> 10 µM (inactive)	> 10 µM (inactive)	4.65 µM (inactive)	> 10 µM (inactive)	> 10 µM (inactive)	> 10 µM (inactive)	–	> 10 µM (inactive)	> 10 µM (inactive)	> 10 µM (inactive)
CCOC(=O)CCC(C(=O)OCC)n1nnc2ccc(Nc3c(C)[n+]([O-])c4ccc(Cl)cc4[n+]3[O-])cc21 (stereo unspecified)	28.6 µM (inactive)	54.3 µM (inactive)	49.2 µM (inactive)	35 µM (inactive)	37.4 µM (inactive)	17.1 µM (inactive)	91.2 µM (inactive)	28.3 µM (inactive)	32.1 µM (inactive)	54.1 µM (inactive)	26.9 µM (inactive)	23.5 µM (inactive)	27.8 µM (inactive)	–	33 µM (inactive)	54 µM (inactive)	40.5 µM (inactive)	49.7 µM (inactive)
CC(C)=C1C(=O)C[C@]2(C)C[C@H]3/C(=C(/C)CCC12)CC[C@@]3(C)O (stereo partly specified)	> 50 µM (inactive)	> 50 µM (inactive)	> 50 µM (inactive)	20.3 µM (inactive)	45 µM (inactive)	> 50 µM (inactive)	18.2 µM (inactive)	> 50 µM (inactive)	37.7 µM (inactive)	> 50 µM (inactive)	40.9 µM (inactive)	> 50 µM (inactive)	> 50 µM (inactive)	> 50 µM (inactive)	20.7 µM (inactive)	> 50 µM (inactive)	> 50 µM (inactive)	–
Cc1cn(CCC(N)C(=O)O)c(=O)[nH]c1=O (stereo unspecified)	> 100 µM (inactive)	> 100 µM (inactive)	–	> 100 µM (inactive)	> 100 µM (inactive)	> 100 µM (inactive)	> 100 µM (inactive)	> 100 µM (inactive)	> 100 µM (inactive)	> 100 µM (inactive)	> 100 µM (inactive)	> 100 µM (inactive)	> 100 µM (inactive)	> 100 µM (inactive)	> 100 µM (inactive)	> 100 µM (inactive)	> 100 µM (inactive)	> 100 µM (inactive)
COc1cc(NC(C)=O)ccc1C(=O)N/N=C/c1ccco1	63 µM (inactive)	> 100 µM (inactive)	65 µM (inactive)	80.2 µM (inactive)	31.8 µM (inactive)	> 100 µM (inactive)	> 100 µM (inactive)	> 100 µM (inactive)	> 100 µM (inactive)	> 100 µM (inactive)	> 100 µM (inactive)	> 100 µM (inactive)	> 100 µM (inactive)	> 100 µM (inactive)	26.7 µM (inactive)	> 100 µM (inactive)	> 100 µM (inactive)	–
O=[N+]([O-])c1ccc(/C(=C\c2ccccc2)Cn2ccnc2)cc1	29.8 µM (inactive)	25.6 µM (inactive)	3.77 µM (inactive)	28 µM (inactive)	15 µM (inactive)	43.9 µM (inactive)	33 µM (inactive)	21.1 µM (inactive)	–	61.5 µM (inactive)	31.6 µM (inactive)	–	32.7 µM (inactive)	59.6 µM (inactive)	38.1 µM (inactive)	44.7 µM (inactive)	24.6 µM (inactive)	32 µM (inactive)
OCCCN(CCc1ccc(Cl)c(Cl)c1)CCN1CCCC1	64.6 µM (inactive)	40.2 µM (inactive)	> 100 µM (inactive)	30 µM (inactive)	–	> 100 µM (inactive)	45.7 µM (inactive)	81.5 µM (inactive)	> 100 µM (inactive)	31.4 µM (inactive)	64.4 µM (inactive)	48 µM (inactive)	34 µM (inactive)	–	31.8 µM (inactive)	81.5 µM (inactive)	> 100 µM (inactive)	51.2 µM (inactive)
Cn1cc(NC(=O)Nc2cc(C(=O)Nc3cc(C(=O)Nc4ccc5cc(S(=O)(=O)O)cc(S(=O)(=O)O)c5c4)n(C)c3)n(C)c2)cc1C(=O)Nc1cc(C(=O)Nc2ccc3cc(S(=O)(=O)O)cc(S(=O)(=O)O)c3c2)n(C)c1	> 100 µM (inactive)	> 100 µM (inactive)	–	> 100 µM (inactive)	> 100 µM (inactive)	38.5 µM (inactive)	> 100 µM (inactive)	> 100 µM (inactive)	84.3 µM (inactive)	> 100 µM (inactive)	> 100 µM (inactive)	> 100 µM (inactive)	> 100 µM (inactive)	> 100 µM (inactive)	> 100 µM (inactive)	> 100 µM (inactive)	> 100 µM (inactive)	> 100 µM (inactive)
CCCCCCCCCCCCCCN [TETRADECYLAMINE]	> 100 µM (inactive)	> 100 µM (inactive)	> 100 µM (inactive)	> 100 µM (inactive)	> 100 µM (inactive)	> 100 µM (inactive)	> 100 µM (inactive)	> 100 µM (inactive)	> 100 µM (inactive)	> 100 µM (inactive)	> 100 µM (inactive)	> 100 µM (inactive)	> 100 µM (inactive)	> 100 µM (inactive)	–	> 100 µM (inactive)	> 100 µM (inactive)	> 100 µM (inactive)
